Data published in patent US10745393B2, “Small molecular probes, processes and use thereof” (JAWAHARLAL NEHRU CENTRE FOR ADVANCED SCIENTIFIC RESEARCH, priority 2014, dated 2020).
Where two headings read alike, the source gives them in different places. Marks after values point to notes of the source that are not given here. Blank lines part the entries; values can stand above or below the compound they belong to.

What was measured:
cells [1] = conditions: Table 3, commercial dyes; cited from earlier work
cells [2] = conditions: Table 3, commercial dyes; cited from earlier work; remark: listed apart in the source
DNA [3] = conditions: cited from earlier work; for Fluorescence qauntum yield (ΦF) DNA bound dye: Table 3, superscript a, commercial dyes
DNA [4] = experiment: Comparison of DNA dyes: sequence selectivity and fluorescence of free/DNA bound dye; assay type: binding
[5] = system: ssDNA oligonucleotides (dA10, dT10, dG10 and dC10); experiment: Fluorescence emission in presence of ssDNA oligonucleotides; assay type: binding; conditions: probe 10 μM, Tris-HCl buffer
(GC)10 = experiment: Fluorescence response / quantum yield of probes with dsDNA (GC)10; assay type: binding; conditions: for fluorescence change in presence of (GC)10: probe 10 μM; for ΦF with (GC)10: Tris-HCl buffer (100 mM, pH 7.4)
(AT)10 = experiment: Absorption / fluorescence response of probes with dsDNA (AT)10; assay type: binding; conditions: for fluorescence enhancement in presence of (AT)10: probe 10 μM, DNA 0 to 12 μM
(D1)mix = experiment: Fluorescence response / quantum yield of probes with dsDNA (D1)mix; assay type: binding; conditions: Tris-HCl buffer (100 mM, pH 7.4)
(AT)20 = experiment: Fluorescence response / quantum yield of probes with dsDNA (AT)20; assay type: binding; conditions: for ΦF with (AT)20: Tris-HCl buffer (100 mM, pH 7.4)
[6] = Absorption, emission and quantum yield of probes in Tris-HCl buffer without DNA; assay type: physicochemical; conditions: for ΦF in Buffer: Tris-HCl buffer (100 mM, pH 7.4), absence of DNA; for emission (fluorescence) maxima / absorption maxima: Tris-HCl buffer, no DNA; for emission (fluorescence) maxima: very weak fluorescence; for absorption maxima: probe 10 μM
HEK293 cells = experiment: DNase I and RNase digestion studies; assay type: cell-based; conditions: 2 hours
Protocol: DNase I is known to degrade nuclear DNA while RNase degrades RNA in the cytoplasm by catalyzing phosphodiester bonds cleavage. HEK293 cells are fixed with chilled methanol for about 1 minute at room temperature and permeabilized with 0.1% Triton X-100 in PBS for about 2×5 minutes. After rinsing with PBS twice, for one set of experiments, cells are treated with probe TC (5 μM) for about 15 min at room temperature in three adjacent wells. A total of about 200 μL PBS (as control experiment), about 100 μg/mL DNase I (Sigma), or about 30 μg/ml DNase-Free RNase (GE) is added into the three adjacent wells and incubated at about 37° C. for about 2 hours. For another set of experiments, instead of treating with probe TC, cells are only treated with about 200 μL PBS (as control experiment), about 100 μg/ml DNase I (Sigma), or about 30 μg/mL DNase-Free RNase (GE) by adding into the three adjacent wells and incubating at about 37° C. for about 2 hours. […] After two more washes in PBS with 0.1% Triton X-100, the cover slips are washed in PBS, rinsed in ddH2O and briefly dipped in 100% ethanol. After a quick dry, cover slips are mounted with 70% glycerol. Images are captured using a Carl Zeiss Laser Scanning Microscope (LSM510 META) using an equal exposure time for control, DNase I, and RNase experiments. Experiments are done in duplicate.

Aβ42 aggregates = Aβ42 aggregates (Homo sapiens, UniProt P05067); experiment: Absorption / fluorescence response with Aβ42 fibrillar aggregates; assay type: binding
[7] = Absorption, emission and quantum yield of probes without Aβ42 aggregates; assay type: physicochemical
[8] = molecular target: ThT/Aβ42 aggregate complex (Homo sapiens, UniProt P05067); experiment: ThT displacement / FRET assay; assay type: binding; conditions: excess ThT 50 μM; TC 1 μM, Aβ42 50 μM
[9] = system: Aβ plaques in CSF samples; experiment: Detection of amyloid plaques in CSF samples by fluorescence; conditions: ThT 20 μM
Protocol: In the present experiment, Amyloid plaques in the CSF sample are detected as it is a hallmark of AD using ThT and QC. […] QC (10 μM) is used to detect Aβ plaques in the same set of CSF samples, which show the same trend as Thioflavin assay and stains CSF3, CSF5, CSF6 and CSF12 samples (FIG. 57 and table 6).

[10] = fluorescence studies with dsDNAs

Aβ42 aggregates, sequence (P05067 672-713 limits assumed): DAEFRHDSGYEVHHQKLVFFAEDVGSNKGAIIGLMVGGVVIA
ThT/Aβ42 aggregate complex, sequence (P05067 672-713 limits assumed, one chain of several): as the sequence (P05067 672-713 limits assumed) above

Compound: N=C(N)c1ccc(-c2cc3ccc(C(=N)N)cc3[nH]2)cc1 [DAPI, 4′,6-Diamidino-2-phenylindole]
Toxicity (cells [1]): Non-toxic
Cell permeability (cells [2]): Semi-Permeable
Fluorescence maxima DNA bound dye (DNA [3]; Table 3, commercial dyes): 450 nm
Fluorescence maxima free dye (DNA [3]; Table 3, commercial dyes): 496 nm
Selectivity (DNA [3]; Table 3, commercial dyes): AT rich
Fluorescence qauntum yield (ΦF) DNA bound dye (DNA [3]): 0.42^a

preferential binding affinity, AT-sites versus GC-sites (DNA [4]; [10]): towards AT-sites than GC-sites
Compound: C#CC[n+]1c(/C=C/c2cc3ccc(N(CC)CC)cc3oc2=O)sc2ccccc21 [TCP, (E)-3-(2-(N-(prop-2-ynyl)-benzo[d]thiazol-2-yl)vinyl)-7-(diethylamino)-2H-chromen-2-one]
emission behaviour in presence of ssDNA [5]: do not show significant changes in the emission behaviour
fluorescence change in presence of (GC)10 ((GC)10): no change
probe concentration at which fluorescence saturates ((AT)10; fixed concentration of DNAs ((AT)10, (D1)mix, (D2)mix), FIG. 32): about 5 μM
fluorescence enhancement in presence of (AT)10 ((AT)10): 6 fold

preferential binding affinity, AT-sites versus GC-sites (DNA [4]; [10]): towards AT-sites than GC-sites
ΦF in Buffer [6]: 0.003
emission (fluorescence) maxima [6]: 689 nm
absorption maxima [6]: 519 nm
Compound: CCN(CC)c1ccc2cc(/C=C/c3cc[n+](C)c4ccccc34)c(=O)oc2c1 [CL, coumarin lepidine]
ΦF with (D1)mix ((D1)mix): 0.052
ΦF with (AT)20 ((AT)20): 0.102
ΦF with (GC)10 ((GC)10): 0.007

Compound: CN1CCN(c2ccc3[nH]c(-c4ccc5[nH]c(-c6ccc(O)cc6)nc5c4)nc3c2)CC1 [Hoechst33258, Hoechst 33258]
fluorescence nuclear staining after DNase I digestion (HEK293 cells; DNase I about 100 μg/mL): almost completely diminished
fluorescence nuclear staining after RNase digestion (HEK293 cells; RNase about 30 μg/mL): does not affect the fluorescence staining
Toxicity (cells [1]): Non-Toxic
Cell permeability (cells [2]): Permeable
Fluorescence maxima DNA bound dye (DNA [3]): 490/450 nm
Fluorescence maxima free dye (DNA [3]): 490/450 nm

preferential binding affinity, AT-sites versus GC-sites (DNA [4]; [10]): towards AT-sites than GC-sites
Compound: CCN(CC)c1ccc2cc(/C=C/c3sc4ccccc4[n+]3CC)c(=O)oc2c1 [TCE, (E)-3-(2-(N-ethyl-benzo[d]thiazol-2-yl)vinyl)-7-(diethylamino)-2H-chromen-2-one]
emission behaviour in presence of ssDNA [5]: do not show significant changes in the emission behaviour
fluorescence change in presence of (GC)10 ((GC)10): no appreciable change
fluorescence enhancement in presence of (AT)10 ((AT)10): 5 fold

Compound: C[n+]1c(/C=C/c2ccc3ccc4cccc5ccc2c3c45)sc2ccccc21 [TP, thiazole pyrene]
ΦF with (D1)mix ((D1)mix): 0.026
preferential binding affinity, AT-sites versus GC-sites (DNA [4]): towards AT-sites than GC-sites
ΦF with (AT)20 ((AT)20): 0.042
ΦF with (GC)10 ((GC)10): 0.005
ΦF in Buffer [6]: 0.002
emission (fluorescence) maxima [6]: 623 nm
absorption maxima [6]: 460 nm
change in absorption and colour with Aβ42 aggregates (Aβ42 aggregates): fails to exhibit any detectable change in absorption
change in fluorescence in presence of Aβ42 aggregates (Aβ42 aggregates): does not show any detectable change in the fluorescence behavior
emission maximum in absence of Aβ42 aggregates [7]: 623 nm
absorption maximum in absence of Aβ42 aggregates ([7]; pH 7.4): 460 nm

Compound: Cc1ccc2c(c1)sc(-c1ccc(N(C)C)cc1)[n+]2C.[Cl-] [ThT, Thioflavin T, reference compound]
displacement of TC from its complex with Aβ42 aggregates by excess ThT [8]: does not displace TC
Normalized fluorescence intensity (ThT) ([9]; sample CSF1): 14.35
Normalized fluorescence intensity (ThT) ([9]; sample CSF2): 5.60
Normalized fluorescence intensity (ThT) ([9]; sample CSF3): 18.25
Normalized fluorescence intensity (ThT) ([9]; sample CSF4): 7.45
Normalized fluorescence intensity (ThT) ([9]; sample CSF5): 40.65
Normalized fluorescence intensity (ThT) ([9]; sample CSF6): 24.40
Normalized fluorescence intensity (ThT) ([9]; sample CSF7): 5.75
Normalized fluorescence intensity (ThT) ([9]; sample CSF8): 8.40
Normalized fluorescence intensity (ThT) ([9]; sample CSF9): 7.50
Normalized fluorescence intensity (ThT) ([9]; sample CSF10): 3.26
Normalized fluorescence intensity (ThT) ([9]; sample CSF11): 8.35
Normalized fluorescence intensity (ThT) ([9]; sample CSF12): 37.50
Normalized fluorescence intensity (ThT) ([9]; sample CSF13): 4.20
Normalized fluorescence intensity (ThT) ([9]; sample CSF14): 4.52

Compound: CC[N+](C)(CC)CCC[n+]1c(-c2ccccc2)c2cc(N)ccc2c2ccc(N)cc21.[I-].[I-] [Propidium iodide]
Toxicity (cells [1]): Toxic
Cell permeability (cells [2]): Impermeable
comparative fluorescence response in presence of (AT)20 ((AT)20; dye 10 μM, Tris-HCl buffer): do not show appreciable fluorescence changes
Fluorescence maxima DNA bound dye (DNA [3]; Table 3, commercial dyes): 617 nm
Fluorescence maxima free dye (DNA [3]; Table 3, commercial dyes): 646 nm
Fluorescence qauntum yield (ΦF) DNA bound dye (DNA [3]): 0.13^a

Compound: CC[n+]1c(-c2ccccc2)c2cc(N)ccc2c2ccc(N)cc21 [Ethidium bromide]
Toxicity (cells [1]): Toxic
Cell permeability (cells [2]): Impermeable
